From PubChem BioAssay AID328 (DTP/NCI, 2004)
“And” between values parts separate entries of the source, which are not always exact repeats. Equal entries are not always repeated. Toxic doses and inconclusive results are not listed. The calls were made as follows: active = survival T/C of 150% or more; inactive = T/C below 125% in these data.

Test system: BDF1 mice, P388 leukemia ip, median survival T/C
Assay: NCI In Vivo Anticancer Drug Screen. Data for tumor model P388 Leukemia (intraperitoneal) in B6D2F1 (BDF1) mice
Details: endpoint: median survival time, higher = longer survival
Procedure, shortened: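 Steps: implant the tumour, treat one group with compound and another with vehicle, record survival, then divide treated by control.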

[1] = dose: 6.25 mg/kg/injection, schedule: Q04DX003 (ip), vehicle: water
[2] = dose: 12.5 mg/kg/injection, schedule: Q01DX009 (ip), vehicle: water
[3] = dose: 12.5 mg/kg/injection, schedule: Q04DX003 (ip), vehicle: water
[4] = dose: 25.0 mg/kg/injection, schedule: Q04DX003 (ip), vehicle: water
[5] = dose: 50.0 mg/kg/injection, schedule: Q04DX003 (ip), vehicle: water
[6] = dose: 100.0 mg/kg/injection, schedule: Q04DX003 (ip), vehicle: water
[7] = dose: 200.0 mg/kg/injection, schedule: Q04DX003 (ip), vehicle: water
[8] = dose: 25.0 mg/kg/injection, schedule: Q01DX009 (ip), vehicle: saline with Tween-80
[9] = dose: 50.0 mg/kg/injection, schedule: Q01DX009 (ip), vehicle: saline with Tween-80
[10] = dose: 100.0 mg/kg/injection, schedule: Q01DX009 (ip), vehicle: saline with Tween-80
[11] = dose: 200.0 mg/kg/injection, schedule: Q01DX009 (ip), vehicle: saline with Tween-80
[12] = dose: 25.0 mg/kg/injection, schedule: Q01DX009 (ip), vehicle: Klucel (hydroxypropylcellulose) (HPC)
[13] = dose: 50.0 mg/kg/injection, schedule: Q01DX009 (ip), vehicle: Klucel (hydroxypropylcellulose) (HPC)
[14] = dose: 3.12 mg/kg/injection, schedule: Q01DX009 (ip), vehicle: water
[15] = dose: 6.25 mg/kg/injection, schedule: Q01DX009 (ip), vehicle: water
[16] = dose: 25.0 mg/kg/injection, schedule: Q01DX009 (ip), vehicle: water
[17] = dose: 100.0 mg/kg/injection, schedule: Q01DX009 (ip), vehicle: water
[18] = dose: 50.0 mg/kg/injection, schedule: Q01DX009 (ip), vehicle: water
[19] = dose: 200.0 mg/kg/injection, schedule: Q01DX009 (ip), vehicle: water
[20] = dose: 100.0 mg/kg/injection, schedule: Q01DX009 (ip), vehicle: Klucel (hydroxypropylcellulose) (HPC)
[21] = dose: 200.0 mg/kg/injection, schedule: Q01DX009 (ip), vehicle: Klucel (hydroxypropylcellulose) (HPC)
[22] = dose: 400.0 mg/kg/injection, schedule: Q01DX009 (ip), vehicle: Klucel (hydroxypropylcellulose) (HPC)
[23] = dose: 100.0 mg/kg/injection, schedule: Q04DX003 (ip), vehicle: saline with Tween-80
[24] = dose: 200.0 mg/kg/injection, schedule: Q04DX003 (ip), vehicle: saline with Tween-80
[25] = dose: 100.0 mg/kg/injection, schedule: Q04DX003 (ip), vehicle: Klucel (hydroxypropylcellulose) (HPC)
[26] = dose: 200.0 mg/kg/injection, schedule: Q04DX003 (ip), vehicle: Klucel (hydroxypropylcellulose) (HPC)
[27] = dose: 50.0 mg/kg/injection, schedule: Q04DX003 (ip), vehicle: Klucel (hydroxypropylcellulose) (HPC)

Measured: T/C

COc1ccc(C2C=C(C)Oc3c2c(=O)oc2ccccc32)cc1OC (stereo not given)
inactive: [1] 98 % of control | [2] 91 % of control | [3] 104 % of control | [4] 100 % of control | [5] 100 % of control | [6] 88 % of control and 96 % of control | [7] 94 % of control | dose: 400.0 mg/kg/injection, schedule: Q04DX003 (ip), vehicle: water 90 % of control

CC1(C)C(=O)C(C)(C)C1=NO
inactive: dose: 100.0 mg/kg/injection, schedule: Q04DX003 (ip), vehicle: saline 95 % of control | dose: 200.0 mg/kg/injection, schedule: Q04DX003 (ip), vehicle: saline 100 % of control | dose: 400.0 mg/kg/injection, schedule: Q04DX003 (ip), vehicle: saline 95 % of control

S=c1[nH]c2nccnc2[nH]1
inactive: [8] 95 % of control | [9] 100 % of control | [10] 95 % of control | [11] 95 % of control | dose: 400.0 mg/kg/injection, schedule: Q01DX009 (ip), vehicle: saline with Tween-80 104 % of control

O.O.O=c1[nH]cc(CO)c(=O)[nH]1.[NH2-].[NH2-].[Pt+2]
inactive: dose: 3.12 mg/kg/injection, schedule: Q01DX009 (ip), vehicle: Klucel (hydroxypropylcellulose) (HPC) 99 % of control | dose: 6.25 mg/kg/injection, schedule: Q01DX009 (ip), vehicle: Klucel (hydroxypropylcellulose) (HPC) 88 % of control | [13] 90 % of control
active: dose: 12.5 mg/kg/injection, schedule: Q01DX009 (ip), vehicle: Klucel (hydroxypropylcellulose) (HPC) 209 % of control | [12] 248 % of control and 211 % of control

O=C(NO)Nc1nc(Cl)c(Cl)nc1Cl
inactive: [14] 104 % of control | [15] 110 % of control | [1] 98 % of control and 101 % of control | [2] 110 % of control | [3] 100 % of control and 113 % of control | [16] 118 % of control | [4] 98 % of control and 118 % of control | [5] 100 % of control and 109 % of control | [17] 118 % of control | [6] 109 % of control

C#CC1(OCC(O)CO)CCCCC1 (stereo not given)
inactive: [14] 107 % of control | [15] 110 % of control | [2] 100 % of control | [16] 110 % of control | [18] 94 % of control | [17] 103 % of control | [19] 103 % of control | dose: 400.0 mg/kg/injection, schedule: Q01DX009 (ip), vehicle: water 118 % of control

CC1(C)C/C(=C\c2ccc(Br)cc2)C(=O)c2ccccc21
inactive: [20] 100 % of control | [21] 105 % of control | [22] 95 % of control

NS(=O)(=O)c1ccc(NC(=O)/C=C/C(=O)O)cc1
inactive: [23] 100 % of control | [24] 100 % of control | dose: 400.0 mg/kg/injection, schedule: Q04DX003 (ip), vehicle: saline with Tween-80 95 % of control

CCOC(=O)C(C#N)C(C)CC (stereo not given)
inactive: [12] 90 % of control | [13] 104 % of control | [20] 100 % of control | [25] 87 % of control | [21] 95 % of control | [26] 104 % of control | [22] 90 % of control | dose: 400.0 mg/kg/injection, schedule: Q04DX003 (ip), vehicle: Klucel (hydroxypropylcellulose) (HPC) 95 % of control

COc1ccc2c(c1)-c1nn(CCO)c(-c3ccncc3)c1CC2
inactive: dose: 100.0 mg/kg/injection, schedule: Q04DX002 (ip), vehicle: DMSO 100 % of control | dose: 200.0 mg/kg/injection, schedule: Q04DX002 (ip), vehicle: DMSO 99 % of control | dose: 400.0 mg/kg/injection, schedule: Q04DX002 (ip), vehicle: DMSO 103 % of control

Cc1cccc(-c2nc3cc(Cl)ccc3c(=O)o2)c1
inactive: [13] 104 % of control | [27] 95 % of control | [20] 109 % of control | [25] 100 % of control | [26] 95 % of control

CC(C)S(=O)(=O)/C(Cl)=C(/Cl)C(Cl)=C(Cl)Cl
inactive: dose: 13.0 mg/kg/injection, schedule: Q01DX009 (ip), vehicle: Klucel (hydroxypropylcellulose) (HPC) 100 % of control | dose: 20.0 mg/kg/injection, schedule: Q01DX009 (ip), vehicle: Klucel (hydroxypropylcellulose) (HPC) 100 % of control | dose: 30.0 mg/kg/injection, schedule: Q01DX009 (ip), vehicle: Klucel (hydroxypropylcellulose) (HPC) 95 % of control

C=C(C)C(O)C(O)c1cc2ccc(=O)oc2cc1OC (stereo not given)
inactive: dose: 8.75 mg/kg/injection, schedule: Q01DX009 (ip), vehicle: carboxymethylcellulose (CMC) 96 % of control | dose: 17.5 mg/kg/injection, schedule: Q01DX009 (ip), vehicle: carboxymethylcellulose (CMC) 88 % of control

CN1CCN(CCNc2ccc(CO)c3sc4ccccc4c(=O)c23)CC1
active: [20] 151 % of control
inactive: [12] 120 % of control | [13] 109 % of control

CC(Nc1ccc(Br)cc1[N+](=O)[O-])C(=O)O (stereo not given)
inactive: [8] 122 % of control | [9] 94 % of control | [10] 112 % of control | [11] 114 % of control

CCCOP(=S)(N1CC1(C)C)N1CC1(C)C (stereo not given)
active: dose: 66.0 mg/kg/injection, schedule: Q01DX009 (ip), vehicle: saline with Tween-80 168 % of control | [10] 209 % of control and 222 % of control
inactive: [23] 116 % of control | [24] 108 % of control

Cn1ccc(=O)c2cc([N+](=O)[O-])ccc21
inactive: [2] 94 % of control | [16] 111 % of control | [4] 102 % of control | [18] 93 % of control | [5] 100 % of control | [17] 94 % of control | [6] 109 % of control | [19] 93 % of control | [7] 92 % of control | dose: 300.0 mg/kg/injection, schedule: Q01DX009 (ip), vehicle: water 113 % of control

Cc1ccc(N(N)c2ccc(C)cc2)cc1
inactive: [13] 100 % of control | [27] 107 % of control | [20] 118 % of control | [25] 107 % of control | [21] 113 % of control | [26] 100 % of control

CC(C)=CBr
inactive: dose: 198.0 mg/kg/injection, schedule: Q01DX005 (ip), vehicle: saline 92 % of control | dose: 300.0 mg/kg/injection, schedule: Q01DX005 (ip), vehicle: saline 100 % of control

COc1ccc(CNc2cc(C(O)CNC(C)(C)C)ccc2O)cc1 (stereo not given)
inactive: dose: 6.25 mg/kg/injection, schedule: Q01DX009 (ip), vehicle: saline with Tween-80 105 % of control | dose: 12.5 mg/kg/injection, schedule: Q01DX009 (ip), vehicle: saline with Tween-80 102 % of control | [8] 114 % of control

Nc1nc(-c2cccc3ccccc23)cc2ccccc12
inactive: [8] 115 % of control | [9] 119 % of control
active: [10] 151 % of control and 182 % of control | [11] 151 % of control

COP1(=O)OCC2OC(n3cnc4c(N)ncnc43)C(O)C2O1 (stereo not given)
inactive: dose: 100.0 mg/kg/injection, schedule: Q01DX009 (ip), vehicle: saline 88 % of control

CC(=O)c1ccc2ccccc2c1OC(=O)c1ccncc1
inactive: dose: 12.5 mg/kg/injection, schedule: Q01DX009 (ip), vehicle: other 99 % of control | dose: 25.0 mg/kg/injection, schedule: Q01DX009 (ip), vehicle: other 98 % of control | dose: 50.0 mg/kg/injection, schedule: Q01DX009 (ip), vehicle: other 107 % of control | dose: 100.0 mg/kg/injection, schedule: Q01DX009 (ip), vehicle: other 118 % of control | dose: 200.0 mg/kg/injection, schedule: Q01DX009 (ip), vehicle: other 107 % of control

C1OCN2CSCC12 (stereo not given)
inactive: dose: 100.0 mg/kg/injection, schedule: Q04DX002 (ip), vehicle: suspension in saline 110 % of control | dose: 600.0 mg/kg/injection, schedule: Q04DX002 (ip), vehicle: suspension in saline 117 % of control
